In ChEMBL document CHEMBL3885861, “Open TG-GATES”:

Species on record: Rattus norvegicus
Assay: Open TG-GATES - Regimen: Daily Repeat
Assay type: toxicity, organism-based, Sprague-Dawley
Design: regimen Daily Repeat, gender Male, age 6 weeks
Settings: in vivo, po, 300 mg/kg, route gavage, dose level High; for APTT / Bas / Eos / Fbg / Hb / Ht / Lym / MCH / MCHC / MCV / Mono / Neu / PT / Plat / RBC / Ret / WBC: tissue Blood; for KIDNEY_L / KIDNEY_R / KIDNEY_TOTAL: tissue Kidney; for LIVER: tissue Liver; for A/G / ALP / ALT / AST / BUN / CRE / Ca / Cl / DBIL / GLC / IP / K / LDH / Na / PL / RALB / TBIL / TC / TG / TP / gamma-GTP: tissue Plasma

Structure (SMILES): CCCNC(=O)NS(=O)(=O)c1ccc(Cl)cc1 [CHLORPROPAMIDE]
- TERMINAL_BW (72 h, time 3 day): 191.6 g
- APTT (72 h, time 3 day): 18.9 s
- Bas (72 h, time 3 day): 0.2%
- Eos (72 h, time 3 day): 1%
- Fbg (72 h, time 3 day): 316.6 mg/dL
- Hb (72 h, time 3 day): 13.3 g/dL
- Ht (72 h, time 3 day): 39.6%
- Lym (72 h, time 3 day): 80.6%
- MCH (72 h, time 3 day): 20.6 pg
- MCHC (72 h, time 3 day): 33.5%
- MCV (72 h, time 3 day): 61.6 fL
- Mono (72 h, time 3 day): 1.8%
- Neu (72 h, time 3 day): 15.2%
- PT (72 h, time 3 day): 16.2 s
- Plat (72 h, time 3 day): 110.6 x10_4/uL
- RBC (72 h, time 3 day): 645.4 x10_4/ul
- Ret (72 h, time 3 day): 3.8%
- WBC (72 h, time 3 day): 88.9 x10_2/uL
- KIDNEY_L (72 h, time 3 day): 0.8 g
- KIDNEY_R (72 h, time 3 day): 0.8 g
- KIDNEY_TOTAL (72 h, time 3 day): 1.7 g
- LIVER (72 h, time 3 day): 8.1 g
- A/G (72 h, time 3 day): 0.9
- ALP (72 h, time 3 day): 1546.2 IU/L
- ALT (72 h, time 3 day): 46 IU/L
- AST (72 h, time 3 day): 64.2 IU/L
- BUN (72 h, time 3 day): 14.8 mg/dL
- CRE (72 h, time 3 day): 0.2 mg/dL
- Ca (72 h, time 3 day): 10.6 mg/dL
- Cl (72 h, time 3 day): 109.8 meq/L
- DBIL (72 h, time 3 day): 0.002 mg/dL
- GLC (72 h, time 3 day): 166 mg/dL
- IP (72 h, time 3 day): 6.6 mg/dL
- K (72 h, time 3 day): 3.5 meq/L
- LDH (72 h, time 3 day): 63.2 IU/L
- Na (72 h, time 3 day): 142.4 meq/L
- PL (72 h, time 3 day): 154.8 mg/dL
- RALB (72 h, time 3 day): 2.6 g/dL
- TBIL (72 h, time 3 day): 0.02 mg/dL
- TC (72 h, time 3 day): 84.2 mg/dL
- TG (72 h, time 3 day): 55.6 mg/dL
- TP (72 h, time 3 day): 5.7 g/dL
- gamma-GTP (72 h, time 3 day): 1.2 IU/L
- TERMINAL_BW ([…], time 7 day): 213.5 g
- TERMINAL_BW ([…], time 14 day): 232.5 g
- TERMINAL_BW ([…], time 28 day): 294.1 g
- APTT ([…], time 7 day): 20.1 s
- Bas ([…], time 7 day): 0%
- Eos ([…], time 7 day): 1%
- Fbg ([…], time 7 day): 286.8 mg/dL
- Hb ([…], time 7 day): 13.1 g/dL
- Ht ([…], time 7 day): 40.1%
- Lym ([…], time 7 day): 81%
- MCH ([…], time 7 day): 20.3 pg
- MCHC ([…], time 7 day): 32.8%
- MCV ([…], time 7 day): 62 fL
- Mono ([…], time 7 day): 2.6%
- Neu ([…], time 7 day): 14.6%
- PT ([…], time 7 day): 16.4 s
- Plat ([…], time 7 day): 111.5 x10_4/uL
- RBC ([…], time 7 day): 647.8 x10_4/ul
- Ret ([…], time 7 day): 5.6%
- WBC ([…], time 7 day): 95.7 x10_2/uL
- APTT ([…], time 14 day): 33.4 s
- Bas ([…], time 14 day): 0%
- Eos ([…], time 14 day): 0.8%
- Fbg ([…], time 14 day): 283.2 mg/dL
- Hb ([…], time 14 day): 14.4 g/dL
- Ht ([…], time 14 day): 43.1%
- Lym ([…], time 14 day): 83.6%
- MCH ([…], time 14 day): 20.3 pg
- MCHC ([…], time 14 day): 33.5%
- MCV ([…], time 14 day): 60.5 fL
- Mono ([…], time 14 day): 2.2%
- Neu ([…], time 14 day): 12%
- PT ([…], time 14 day): 16.6 s
- Plat ([…], time 14 day): 105.9 x10_4/uL
- RBC ([…], time 14 day): 712.6 x10_4/ul
- Ret ([…], time 14 day): 3.8%
- WBC ([…], time 14 day): 79.2 x10_2/uL
- APTT ([…], time 28 day): 22.6 s
- Bas ([…], time 28 day): 0.2%
- Eos ([…], time 28 day): 0.8%
- Fbg ([…], time 28 day): 282.6 mg/dL
- Hb ([…], time 28 day): 14.5 g/dL
- Ht ([…], time 28 day): 44.1%
- Lym ([…], time 28 day): 78.2%
- MCH ([…], time 28 day): 18.5 pg
- MCHC ([…], time 28 day): 32.9%
- MCV ([…], time 28 day): 56.1 fL
- Mono ([…], time 28 day): 2.8%
- Neu ([…], time 28 day): 16.8%
- PT ([…], time 28 day): 16.7 s
- Plat ([…], time 28 day): 93.9 x10_4/uL
- RBC ([…], time 28 day): 786 x10_4/ul
- Ret ([…], time 28 day): 2.3%
- WBC ([…], time 28 day): 126.5 x10_2/uL
- KIDNEY_L ([…], time 7 day): 0.9 g
- KIDNEY_R ([…], time 7 day): 0.9 g
- KIDNEY_TOTAL ([…], time 7 day): 1.8 g
- KIDNEY_L ([…], time 14 day): 1 g
- KIDNEY_R ([…], time 14 day): 1 g
- KIDNEY_TOTAL ([…], time 14 day): 2.1 g
- KIDNEY_L ([…], time 28 day): 1.2 g
- KIDNEY_R ([…], time 28 day): 1.2 g
- KIDNEY_TOTAL ([…], time 28 day): 2.4 g
- LIVER ([…], time 7 day): 9.7 g
- LIVER ([…], time 14 day): 11 g
- LIVER ([…], time 28 day): 13.2 g
- A/G ([…], time 7 day): 0.9
- ALP ([…], time 7 day): 1590.8 IU/L
- ALT ([…], time 7 day): 48 IU/L
- AST ([…], time 7 day): 69.2 IU/L
- BUN ([…], time 7 day): 18.6 mg/dL
- CRE ([…], time 7 day): 0.2 mg/dL
- Ca ([…], time 7 day): 10.9 mg/dL
- Cl ([…], time 7 day): 110.8 meq/L
- DBIL ([…], time 7 day): 0.004 mg/dL
- GLC ([…], time 7 day): 187 mg/dL
- IP ([…], time 7 day): 7.6 mg/dL
- K ([…], time 7 day): 3.3 meq/L
- LDH ([…], time 7 day): 68.4 IU/L
- Na ([…], time 7 day): 145.2 meq/L
- PL ([…], time 7 day): 165.2 mg/dL
- RALB ([…], time 7 day): 2.6 g/dL
- TBIL ([…], time 7 day): 0.016 mg/dL
- TC ([…], time 7 day): 82.2 mg/dL
- TG ([…], time 7 day): 60.2 mg/dL
- TP ([…], time 7 day): 5.7 g/dL
- gamma-GTP ([…], time 7 day): 1 IU/L
- A/G ([…], time 14 day): 0.8
- ALP ([…], time 14 day): 1780 IU/L
- ALT ([…], time 14 day): 51 IU/L
- AST ([…], time 14 day): 72.2 IU/L
- BUN ([…], time 14 day): 17.6 mg/dL
- CRE ([…], time 14 day): 0.2 mg/dL
- Ca ([…], time 14 day): 10.3 mg/dL
- Cl ([…], time 14 day): 111.2 meq/L
- DBIL ([…], time 14 day): 0.004 mg/dL
- GLC ([…], time 14 day): 182.6 mg/dL
- IP ([…], time 14 day): 7.8 mg/dL
- K ([…], time 14 day): 3.2 meq/L
- LDH ([…], time 14 day): 85 IU/L
- Na ([…], time 14 day): 145.2 meq/L
- PL ([…], time 14 day): 158 mg/dL
- RALB ([…], time 14 day): 2.7 g/dL
- TBIL ([…], time 14 day): 0.012 mg/dL
- TC ([…], time 14 day): 75 mg/dL
- TG ([…], time 14 day): 72.4 mg/dL
- TP ([…], time 14 day): 5.9 g/dL
- gamma-GTP ([…], time 14 day): 1 IU/L
- A/G ([…], time 28 day): 0.8
- ALP ([…], time 28 day): 1231.8 IU/L
- ALT ([…], time 28 day): 47.8 IU/L
- AST ([…], time 28 day): 70 IU/L
- BUN ([…], time 28 day): 20 mg/dL
- CRE ([…], time 28 day): 0.2 mg/dL
- Ca ([…], time 28 day): 10.5 mg/dL
- Cl ([…], time 28 day): 110.4 meq/L
- DBIL ([…], time 28 day): 0.002 mg/dL
- GLC ([…], time 28 day): 196.4 mg/dL
- IP ([…], time 28 day): 6.7 mg/dL
- K ([…], time 28 day): 3 meq/L
- LDH ([…], time 28 day): 67.4 IU/L
- Na ([…], time 28 day): 146.4 meq/L
- PL ([…], time 28 day): 148.6 mg/dL
- RALB ([…], time 28 day): 2.7 g/dL
- TBIL ([…], time 28 day): 0.008 mg/dL
- TC ([…], time 28 day): 65.6 mg/dL
- TG ([…], time 28 day): 89.4 mg/dL
- TP ([…], time 28 day): 6 g/dL
- gamma-GTP ([…], time 28 day): 1.2 IU/L
